Assay results reported in ChEMBL document CHEMBL3091391, “An assay for human telomeric G-quadruplex DNA binding drugs” (Bioorg Med Chem Lett, 2013).
Active and inactive are the calls of the source. The calls are words filed in the database; no cut-off is given here.

Assays:
Homo sapiens [1] = organism: Homo sapiens; experiment: Binding affinity to human d[AGGG(TTAGGG)3] telomeric G-quadruplex DNA by fluorescence-based assay
Homo sapiens [2] = organism: Homo sapiens; experiment: Binding affinity to human d[AGGG(TTAGGG)3] telomeric G-quadruplex DNA after 1 to 12 hrs by titrimetric analysis in presence of sodium ions
Homo sapiens [3] = organism: Homo sapiens; experiment: Selectivity ratio of binding affinity for human d[AGGG(TTAGGG)3] telomeric G-quadruplex DNA in presence of sodium ions to binding affinity for human d[AGGG(TTAGGG)3] telomeric G-quadruplex DNA in presence of potassium ions
Homo sapiens [4] = organism: Homo sapiens; experiment: Binding affinity to human d[AGGG(TTAGGG)3] telomeric G-quadruplex DNA after 1 to 12 hrs by titrimetric analysis in presence of potassium ions
[5] = Binding affinity to d(G4C4)2 duplex DNA (unknown origin) by fluorescence-based assay
Homo sapiens [6] = organism: Homo sapiens; experiment: Binding affinity to human telomeric G-quadruplex DNA

SMILES	Activity (Homo sapiens [1])	further results
NC[C@@H]1O[C@H](O[C@H]2[C@@H](O)[C@H](O[C@@H]3[C@@H](O)[C@H](N)C[C@H](N)[C@H]3O[C@H]3O[C@H](CN)[C@@H](O)[C@H](O)[C@H]3N)O[C@@H]2CSCCNC(=S)NCCCCCCCCCCNC(=S)NCc2ccc3c(c2)C(=O)c2ccccc2C3=O)[C@H](N)[C@@H](O)[C@@H]1O	inactive	
NCC1O[C@H](O[C@H]2[C@@H](O)[C@H](O[C@@H]3[C@@H](O)[C@H](N)C[C@H](N)[C@H]3O[C@H]3O[C@H](CN)[C@@H](O)[C@H](O)[C@H]3N)O[C@@H]2CNC(=S)NCc2ccc3c(c2)C(=O)c2ccccc2C3=O)[C@H](N)[C@@H](O)[C@@H]1O (single isomer, unassigned)	inactive	
NC[C@@H]1O[C@H](O[C@H]2[C@@H](O)[C@H](O[C@@H]3[C@@H](O)[C@H](N)C[C@H](N)[C@H]3O[C@H]3O[C@H](CN)[C@@H](O)[C@H](O)[C@H]3N)O[C@@H]2CSCCNC(=S)NCCNC(=S)NCc2ccc3c(c2)C(=O)c2ccccc2C3=O)[C@H](N)[C@@H](O)[C@@H]1O	inactive	
NC[C@@H]1O[C@H](O[C@H]2[C@@H](O)[C@H](O[C@@H]3[C@@H](O)[C@H](N)C[C@H](N)[C@H]3O[C@H]3O[C@H](CN)[C@@H](O)[C@H](O)[C@H]3N)O[C@@H]2CSCCNC(=S)Nc2ccc3c(c2)C(=O)c2ccccc2C3=O)[C@H](N)[C@@H](O)[C@@H]1O	inactive	
CN1/C(=C/c2cc[n+](CCCCC(=O)NCCSC[C@H]3O[C@@H](O[C@@H]4[C@@H](O)[C@H](N)C[C@H](N)[C@H]4O[C@H]4O[C@H](CN)[C@@H](O)[C@H](O)[C@H]4N)[C@H](O)[C@@H]3O[C@H]3O[C@@H](CN)[C@@H](O)[C@H](O)[C@H]3N)c3ccccc23)Sc2ccccc21		K (Homo sapiens [2]): 9.6 ×10⁷ /M; Selectivity ratio (Homo sapiens [3]): 10; K (Homo sapiens [4]): 9.3 ×10⁶ /M; Activity [5]: Active
NC[C@@H]1O[C@H](O[C@H]2[C@@H](O)[C@H](O[C@@H]3[C@@H](O)[C@H](N)C[C@H](N)[C@H]3O[C@H]3O[C@H](CN)[C@@H](O)[C@H](O)[C@H]3N)O[C@@H]2CSCCNC(=S)NCc2ccc3c(c2)C(=O)c2ccccc2C3=O)[C@H](N)[C@@H](O)[C@@H]1O	inactive	
NC[C@@H]1O[C@H](O[C@H]2[C@@H](O)[C@H](O[C@@H]3[C@@H](O)[C@H](N)C[C@H](N)[C@H]3O[C@H]3O[C@H](CN)[C@@H](O)[C@H](O)[C@H]3N)O[C@@H]2CNC(=S)NCCCOCCCCOCCCNC(=S)NCc2ccc3c(c2)C(=O)c2ccccc2C3=O)[C@H](N)[C@@H](O)[C@@H]1O	inactive	
NC[C@@H]1O[C@H](O[C@H]2[C@@H](O)[C@H](O[C@@H]3[C@@H](O)[C@H](N)C[C@H](N)[C@H]3O[C@H]3O[C@H](CN)[C@@H](O)[C@H](O)[C@H]3N)O[C@@H]2CSCCNC(=S)NCCCNC(=O)c2ccc3c(c2)C(=O)c2ccccc2C3=O)[C@H](N)[C@@H](O)[C@@H]1O		Ka (Homo sapiens [6]): 1.25 ×10⁷ /M
NC[C@@H]1O[C@H](O[C@H]2[C@@H](O)[C@H](O[C@@H]3[C@@H](O)[C@H](N)C[C@H](N)[C@H]3O[C@H]3O[C@H](CN)[C@@H](O)[C@H](O)[C@H]3N)O[C@@H]2CSCCNC(=S)NCCCOCCCCOCCCNC(=S)NCc2ccc3c(c2)C(=O)c2ccccc2C3=O)[C@H](N)[C@@H](O)[C@@H]1O	inactive	
NC[C@@H]1O[C@H](O[C@H]2[C@@H](O)[C@H](O[C@@H]3[C@@H](O)[C@H](N)C[C@H](N)[C@H]3O[C@H]3O[C@H](CN)[C@@H](O)[C@H](O)[C@H]3N)O[C@@H]2CSCCNC(=S)NCCCNC(=S)NCc2ccc3c(c2)C(=O)c2ccccc2C3=O)[C@H](N)[C@@H](O)[C@@H]1O	inactive	
NC[C@@H]1O[C@H](O[C@H]2[C@@H](O)[C@H](O[C@@H]3[C@@H](O)[C@H](N)C[C@H](N)[C@H]3O[C@H]3O[C@H](CN)[C@@H](O)[C@H](O)[C@H]3N)O[C@@H]2CNC(=S)Nc2ccc3c(c2)C(=O)c2ccccc2C3=O)[C@H](N)[C@@H](O)[C@@H]1O	inactive	
NC[C@@H]1O[C@H](O[C@H]2[C@@H](O)[C@H](O[C@@H]3[C@@H](O)[C@H](N)C[C@H](N)[C@H]3O[C@H]3O[C@H](CN)[C@@H](O)[C@H](O)[C@H]3N)O[C@@H]2CNC(=S)NCCCNC(=S)NCc2ccc3c(c2)C(=O)c2ccccc2C3=O)[C@H](N)[C@@H](O)[C@@H]1O	inactive	
NC[C@@H]1O[C@H](O[C@H]2[C@@H](O)[C@H](O[C@@H]3[C@@H](O)[C@H](N)C[C@H](N)[C@H]3O[C@H]3O[C@H](CN)[C@@H](O)[C@H](O)[C@H]3N)O[C@@H]2CNC(=S)NCCCCCCCCCCNC(=S)NCc2ccc3c(c2)C(=O)c2ccccc2C3=O)[C@H](N)[C@@H](O)[C@@H]1O	inactive	
NC[C@@H]1O[C@H](O[C@H]2[C@@H](O)[C@H](O[C@@H]3[C@@H](O)[C@H](N)C[C@H](N)[C@H]3O[C@H]3O[C@H](CN)[C@@H](O)[C@H](O)[C@H]3N)O[C@@H]2CNC(=S)NCCNC(=S)NCc2ccc3c(c2)C(=O)c2ccccc2C3=O)[C@H](N)[C@@H](O)[C@@H]1O	inactive	
